18 compounds from patent US6858638B2, “Substituted indazoles, compositions containing them, method of production and use” (Aventis Pharma S.A., priority 2002, dated 2005) can be followed below.

The structures appear in SMILES notation. Where two headings read alike, the source gives them in different places.

What all share (format): biochemical
One assay deals with T1, human KDR enzyme (Homo sapiens, UniProt P35968).
T1 construct: The cytoplasmic domain of the human KDR enzyme; GST; made in house; host or cells: SF21 insect cells (baculovirus)
T1 sequence (P35968 786-1356 limits assumed): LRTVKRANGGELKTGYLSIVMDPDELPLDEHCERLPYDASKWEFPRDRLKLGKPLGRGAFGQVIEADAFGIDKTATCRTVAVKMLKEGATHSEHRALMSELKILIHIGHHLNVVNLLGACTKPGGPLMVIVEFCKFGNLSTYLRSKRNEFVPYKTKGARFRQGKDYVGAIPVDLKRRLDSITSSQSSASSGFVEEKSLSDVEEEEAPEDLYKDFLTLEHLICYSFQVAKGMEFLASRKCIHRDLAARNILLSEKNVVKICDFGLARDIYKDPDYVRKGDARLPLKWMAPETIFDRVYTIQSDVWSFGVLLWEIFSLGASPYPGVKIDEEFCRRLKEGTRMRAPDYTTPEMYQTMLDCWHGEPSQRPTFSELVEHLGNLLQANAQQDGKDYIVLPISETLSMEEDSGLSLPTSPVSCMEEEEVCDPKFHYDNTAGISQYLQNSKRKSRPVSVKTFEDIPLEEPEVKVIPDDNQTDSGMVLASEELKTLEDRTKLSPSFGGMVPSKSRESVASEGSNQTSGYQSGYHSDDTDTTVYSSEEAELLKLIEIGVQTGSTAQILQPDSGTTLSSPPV
Kind of assay: KDR substrate (PLCγ) phosphorylation, scintillation assay. To be noted: read-out: KDR % inhib at 10 μM. Summed up: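 Values are percent inhibition relative to the compound-free control, read by scintillation counting of 33P incorporation after EDTA stop. Baculovirus/SF21-expressed GST-KDR cytoplasmic domain (100 ng) acted for 1 h at 37 °C in pH 7.2 MOPS kinase buffer. The substrate was GST-PLCγ SH2-SH3 (2 μg), added with γ33P-ATP and 2 μM unlabeled ATP.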

Another assay has as its target T2, human FAK (Homo sapiens, UniProt Q05397).
T2 construct: The complete cDNA of human FAK; made in house; host or cells: baculovirus expression system (vector pFastBac HTc)
Kind of assay: FAK autophosphorylation inhibition, time resolved fluorescence (HTRF) assay. The conditions noted are these: 10 μM (values without asterisk); read-out: FAK % inhib at 10 μM. Summed up: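 Autophosphorylation was detected by europium-cryptate anti-pTyr and XL665 anti-His energy transfer, percent inhibition from the 665/620 ratio relative to no-compound wells. Enzyme: His-FAK full length, 6.6 µg/ml, incubated 1 h at 37 °C, pH 7.2, 15 µM ATP.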

Another assay deals with T3, Aurora2 kinase (Homo sapiens, UniProt O14965).
T3 construct: A complete recombinant Aurora2 enzyme; His tag (N); made in house; host or cells: E. coli
T3 sequence (O14965 1-403): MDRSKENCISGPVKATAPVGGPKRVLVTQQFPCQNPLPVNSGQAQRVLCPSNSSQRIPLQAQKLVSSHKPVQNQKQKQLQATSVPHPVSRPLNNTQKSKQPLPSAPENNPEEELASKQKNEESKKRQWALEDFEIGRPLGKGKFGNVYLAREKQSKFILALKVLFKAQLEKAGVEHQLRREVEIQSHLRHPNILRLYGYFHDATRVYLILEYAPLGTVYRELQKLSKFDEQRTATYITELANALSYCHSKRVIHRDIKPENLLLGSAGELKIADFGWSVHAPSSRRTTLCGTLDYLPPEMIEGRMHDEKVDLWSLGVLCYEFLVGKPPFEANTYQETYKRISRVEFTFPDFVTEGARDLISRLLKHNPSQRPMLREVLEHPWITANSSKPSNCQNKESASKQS
Kind of assay: Aurora2 kinase radioactivity scintillation assay using nickel chelate (NuMA substrate). The conditions noted are these: read-out: Aurora2 % inhib at 10 μM. The gist of the method:
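Read-out is 33P incorporation into His-NuMA (Q1687-H2101, 0.5 μM) captured on nickel chelate, after 30 min at 37 °C with 0.02 μM His-Aurora2 and 1 μM ATP. Expressed as percentage inhibition of uncompounded control activity, background subtracted.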

In assay [1] the target is T4, human IGF1R cytoplasmic domain (Homo sapiens, UniProt P08069).
T4 construct: The human IGF1R cytoplasmic domain was cloned; made in house; host or cells: SF21 insect cells (baculovirus)
T4 sequence (P08069 960-1367 limits assumed): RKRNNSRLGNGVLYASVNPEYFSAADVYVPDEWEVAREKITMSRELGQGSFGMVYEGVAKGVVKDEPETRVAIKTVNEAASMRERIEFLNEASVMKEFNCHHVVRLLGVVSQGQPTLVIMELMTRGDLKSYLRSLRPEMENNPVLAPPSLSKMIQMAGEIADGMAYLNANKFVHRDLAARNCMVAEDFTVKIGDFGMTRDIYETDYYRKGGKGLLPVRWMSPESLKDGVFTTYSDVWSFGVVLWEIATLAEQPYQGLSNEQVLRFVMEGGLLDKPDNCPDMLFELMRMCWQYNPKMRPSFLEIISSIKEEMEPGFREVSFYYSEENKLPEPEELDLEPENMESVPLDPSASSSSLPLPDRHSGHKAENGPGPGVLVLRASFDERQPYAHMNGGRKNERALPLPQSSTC
Kind of assay: IGF1R autophosphorylation inhibition, time resolved fluorescence (HTRF) assay. To be noted: read-out: IGF1R % inhib at 10 μM. The gist of the method: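 GST-tagged human IGF1R cytoplasmic domain from SF21 cells incubated with compound in 50 mM Hepes pH 7.5, 5 mM MnCl2, 50 mM NaCl, […] ATP. Autophosphorylation detected by HTRF (Eu-K anti-phosphotyrosine, XL665 anti-GST) after EDTA/KF stop; percentage inhibition versus no-compound control.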
(In general: TR-FRET usually uses a lanthanide donor and a delayed reading to cut background.)

T2 sequence (Q05397 whole entry): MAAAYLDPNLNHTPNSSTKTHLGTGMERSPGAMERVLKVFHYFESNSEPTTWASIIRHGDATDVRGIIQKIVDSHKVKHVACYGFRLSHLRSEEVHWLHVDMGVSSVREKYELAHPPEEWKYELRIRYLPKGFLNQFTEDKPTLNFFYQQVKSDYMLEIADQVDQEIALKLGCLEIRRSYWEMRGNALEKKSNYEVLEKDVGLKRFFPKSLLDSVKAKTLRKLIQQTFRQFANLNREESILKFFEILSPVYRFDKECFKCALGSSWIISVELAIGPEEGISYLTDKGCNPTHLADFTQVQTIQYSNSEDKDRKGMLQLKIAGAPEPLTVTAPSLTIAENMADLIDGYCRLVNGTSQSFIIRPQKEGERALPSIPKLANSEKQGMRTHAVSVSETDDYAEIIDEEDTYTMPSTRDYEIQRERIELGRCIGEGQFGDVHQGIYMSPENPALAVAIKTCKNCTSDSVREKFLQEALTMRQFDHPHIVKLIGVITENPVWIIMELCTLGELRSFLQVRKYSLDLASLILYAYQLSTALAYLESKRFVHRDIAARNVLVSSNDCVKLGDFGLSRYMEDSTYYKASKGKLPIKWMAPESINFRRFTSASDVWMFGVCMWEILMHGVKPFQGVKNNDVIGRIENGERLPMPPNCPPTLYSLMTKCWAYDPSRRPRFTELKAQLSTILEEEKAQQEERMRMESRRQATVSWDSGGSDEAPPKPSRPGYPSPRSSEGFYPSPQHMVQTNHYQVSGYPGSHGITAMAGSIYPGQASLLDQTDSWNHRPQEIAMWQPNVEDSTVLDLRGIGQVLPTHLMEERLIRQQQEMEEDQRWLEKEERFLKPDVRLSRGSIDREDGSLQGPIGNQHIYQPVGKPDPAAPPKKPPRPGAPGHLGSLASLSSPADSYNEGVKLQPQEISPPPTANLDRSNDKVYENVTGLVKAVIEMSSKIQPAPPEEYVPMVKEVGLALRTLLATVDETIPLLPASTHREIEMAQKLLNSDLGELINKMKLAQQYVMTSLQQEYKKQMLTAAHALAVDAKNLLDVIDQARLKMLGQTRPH

Consider `CCOc1cccc(-c2n[nH]c3ccc(NS(=O)(=O)c4ccccc4S(C)(=O)=O)cc23)c1` [Example 186, N-[3-(3-Ethoxyphenyl)-1H-indazol-5-yl]-2-methanesulfonyl-benzenesulfonamide], for which the inhibition at 10 µM at human KDR enzyme (10 μM) stood at 35%; at human FAK it was 94%; on Aurora2 kinase (10 μM), 90%; in assay [1] (10 μM) it was 60%.

With `CS(=O)(=O)c1ccccc1S(=O)(=O)Nc1ccc2[nH]nc(-c3cc(Br)cc(Br)c3)c2c1` [Example 211, N-[3-(3,5-Dibromophenyl)-1H-indazol-5-yl]-2-methanesulfonyl-benzenesulfonamide], the inhibition at 10 µM on human KDR enzyme (10 μM) was found to be 21%; at human FAK, 95%; at Aurora2 kinase (10 μM), 79%; in assay [1] (10 μM), 45%.

Consider `O=S(=O)(Nc1ccc2[nH]nc(-c3ccc(O)cc3)c2c1)c1ccccc1` [Example 34, N-[3-(4-Hydroxyphenyl)-1H-indazol-5-yl]benzenesulfonamide], for which the inhibition at 10 µM at human KDR enzyme (10 μM) came out at 96%; on human FAK it was 87%; on Aurora2 kinase (10 μM), 100%; in assay [1] (10 μM) it was 89%.

As to `CS(=O)(=O)c1ccccc1S(=O)(=O)Nc1ccc2[nH]nc(-c3ccc(C(F)(F)F)cc3)c2c1` [Example 176, N-[3-(4-Trifluoromethylphenyl)-1H-indazol-5-yl]-2-methanesulfonyl-benzenesulfonamide], the inhibition at 10 µM on human KDR enzyme (10 μM) is 70%; at human FAK it was 66%; on Aurora2 kinase (10 μM) it was 88%; in assay [1] (10 μM), 83%.

Consider `CS(=O)(=O)c1ccccc1S(=O)(=O)Nc1ccc2[nH]nc(-c3ccc(I)cc3)c2c1` [Example 218, N-[3-(4-Iodophenyl)-1H-indazol-5-yl]-2-methanesulfonyl-benzenesulfonamide], for which the inhibition at 10 µM is 37% on human KDR enzyme (10 μM), 15% at human FAK, 68% at Aurora2 kinase (10 μM) and 20% in assay [1] (10 μM).

On to `COc1ccc(-c2n[nH]c3ccc(NS(=O)(=O)c4ccccc4S(C)(=O)=O)cc23)c(OC)c1` [Example 199, 2-Methanesulfonyl-N-[3-(2,4-dimethoxyphenyl)-1H-indazol-5-yl]benzenesulfonamide], for which the inhibition at 10 µM at human KDR enzyme (10 μM) amounted to 45%; on human FAK, 87%; at Aurora2 kinase (10 μM), 87%; in assay [1] (10 μM), 27%.

As to `CS(=O)(=O)c1ccccc1S(=O)(=O)Nc1ccc2[nH]nc(-c3cccc(F)c3F)c2c1` [Example 221, N-[3-(2,3-Difluorophenyl)-1H-indazol-5-yl]-2-methanesulfonyl-benzenesulfonamide], the inhibition at 10 µM on human KDR enzyme (10 μM) was 60%; on human FAK it was 94%; on Aurora2 kinase (10 μM), 84%; in assay [1] (10 μM), 50%.

Regarding `CN(C)c1c(F)c(F)c(S(=O)(=O)Nc2ccc3[nH]nc(-c4cc5ccccc5[nH]4)c3c2)c(F)c1F` [Example 86, 4-Dimethylamino-2,3,5,6-tetrafluoro-N-[3-(1H-indol-2-yl)-1H-indazol-5-yl]benzenesulfonamide], the inhibition at 10 µM at human KDR enzyme (10 μM) was 85%; at human FAK, 40%; on Aurora2 kinase (10 μM) it was 86%; in assay [1] (10 μM) it was 53%.

With `CS(=O)(=O)c1ccccc1S(=O)(=O)Nc1ccc2[nH]nc(-c3ccc(Br)cc3F)c2c1` [Example 212, N-[3-(4-Bromo-2-fluoro-phenyl)-1H-indazol-5-yl]-2-methanesulfonyl-benzenesulfonamide], the inhibition at 10 µM at human KDR enzyme (10 μM) was 47%; at human FAK, 72%; at Aurora2 kinase (10 μM), 86%; in assay [1] (10 μM), 65%.

`CS(=O)(=O)c1ccccc1S(=O)(=O)Nc1ccc2[nH]nc(-c3ccc(Cl)s3)c2c1` [Example 181, N-[3-(5-Chlorothiophen-2-yl)-1H-indazol-5-yl]-2-methanesulfonyl-benzenesulfonamide]: the inhibition at 10 µM on human KDR enzyme (10 μM) worked out at 49%; at human FAK, 83%; on Aurora2 kinase (10 μM), 94%; in assay [1] (10 μM) it was 55%.

For the compound `C=Cc1ccc(-c2n[nH]c3ccc(NS(=O)(=O)c4ccccc4S(C)(=O)=O)cc23)cc1` [Example 185, 2-Methanesulfonyl-N-[3-(4-vinylphenyl)-1H-indazol-5-yl]-benzenesulfonamide], the inhibition at 10 µM amounted to 58% on human KDR enzyme (10 μM), 92% at human FAK, 94% at Aurora2 kinase (10 μM) and 77% in assay [1] (10 μM).

As to `O=S(=O)(Nc1ccc2[nH]nc(-c3ccccc3)c2c1)c1ccc2ccccc2c1` [Example 108, N-(3-Phenyl-1H-indazol-5-yl)-naphthalene-2-sulfonamide], the inhibition at 10 µM at human KDR enzyme (10 μM) was found to be 72%; at human FAK, 8%; on Aurora2 kinase (10 μM), 44%; in assay [1] (10 μM) it was 78%.

As to `CS(=O)(=O)c1ccccc1S(=O)(=O)Nc1ccc2[nH]nc(-c3cccc(C(F)(F)F)c3)c2c1` [Example 175, N-[3-(3-Trifluoromethylphenyl)-1H-indazol-5-yl]-2-methanesulfonyl-benzenesulfonamide], the inhibition at 10 µM came to 68% on human KDR enzyme (10 μM), 90% on human FAK, 88% on Aurora2 kinase (10 μM) and 81% in assay [1] (10 μM).

For the compound `CS(=O)(=O)c1ccccc1S(=O)(=O)Nc1ccc2[nH]nc(-c3cc(F)cc(F)c3)c2c1` [Example 102, N-[3-(3,5-difluorophenyl)-1H-indazol-5-yl]-2-methylsulfonylbenzenesulfonamide], the inhibition at 10 µM on human KDR enzyme (10 μM) is 77%; on human FAK, 90%; at Aurora2 kinase (10 μM) it was 96%; in assay [1] (10 μM), 74%.

Turning to `C[Si](C)(C)C#Cc1cccc(-c2n[nH]c3ccc(NS(=O)(=O)c4ccccc4S(C)(=O)=O)cc23)c1` [Example 91, 2-Methylsulfonyl-N-[3-(3-trimethylsilanylethynylphenyl)-1H-indazol-5-yl]benzenesulfonamide], the inhibition at 10 µM on human KDR enzyme is 35%; at human FAK it was 95%; at Aurora2 kinase, 11%; in assay [1], 7%.

`CS(=O)(=O)c1ccccc1S(=O)(=O)Nc1ccc2[nH]nc(-c3cccc(Cl)c3Cl)c2c1` [Example 208, N-[3-(2,3-Dichlorophenyl)-1H-indazol-5-yl]-2-methanesulfonyl-benzenesulfonamide]: the inhibition at 10 µM at human KDR enzyme (10 μM) is 25%; on human FAK it was -1%; at Aurora2 kinase (10 μM) it was 56%; in assay [1] (10 μM), 0%.

In the case of `CS(=O)(=O)c1ccccc1S(=O)(=O)Nc1ccc2[nH]nc(-c3cc4cccnc4[nH]3)c2c1` [Example 57, 2-Methylsulfonyl-N-[3-(1H-pyrrolo[2,3-b]pyridin-2-yl)-1H-indazol-5-yl]benzenesulfonamide], the inhibition at 10 µM is 22% on human KDR enzyme (10 μM), 48% at human FAK, 53% at Aurora2 kinase (10 μM) and 0% in assay [1] (10 μM).

`CS(=O)(=O)c1ccccc1S(=O)(=O)Nc1ccc2[nH]nc(-c3ccc(Oc4ccccc4)cc3)c2c1` [Example 171, 2-Methanesulfonyl-N-[3-(4-phenoxyphenyl)-1H-indazol-5-yl]benzenesulfonamide]: the inhibition at 10 µM was determined as 40% on human KDR enzyme (10 μM), 25% at human FAK, 59% at Aurora2 kinase (10 μM) and 20% in assay [1] (10 μM).
